These are literature values, as cited in patent publication US9839606B2, “Formulation for treatment of hairs” (OSMA Cosmetics & Laboratories AG, priority 2013, dated 2017).

Series [1] relates to human dermal papilla cells (DPCs).

Turning to epigallocatechin-3-gallate [EGCG], the “proliferation of cultured DPCs” value in series [1] is “promoted”. The “hair growth in hair follicles ex vivo culture” value with hair follicles is given as “promoted hair growth”.
